# Data published in patent publication US20050282786A1, “Method for reducing c-rective protein levels with non-antibacterial tetracycline formulations” (priority 2002, published 2005).
# Several values for one entry are separate records, joined by “and”; a condition that tells them apart may be missing. Equal entries are not always repeated. Structures can show the parent of a compound that is named as a salt.
# Assays:
# [1] = CMT-3 serum levels in humans; type: in vivo, human; details: dose of about 10 to about 20 mg/day
# Experimental: Non-antibacterial tetracycline compounds can be used in higher amounts than antibacterial tetracyclines, while avoiding the indiscriminate killing of bacteria, and the emergence of resistant bacteria. For example, 6-demethyl-6-deoxy-4-dedimethylaminotetracycline (CMT-3) may be administered in doses of about 10 to about 200 mg/day, or in amounts that result in serum levels in humans of about 1.0 μg/ml to about 10 μg/ml. For example, a dose of about 10 to about 20 mg/day produces serum levels in humans of about 1.0 μg/ml.
# [2] = tested on: C-reactive protein (CRP); assay: Prospective randomized six-month study of low-dose doxycycline versus placebo: C-reactive protein levels in patients after acute coronary syndrome; type: in vivo, human; details: for 6-Month CRP level: after six months of therapy, P<0.05 vs baseline; for 6-Month CRP level / Baseline CRP level: mean ± S.E.M.; for Reduction Due To Treatment (CRP): six months vs baseline; for Baseline CRP level / Baseline CRP: study entry; for Six Month CRP: six months
# Experimental: A prospective, randomized study was conducted over six (6) months to investigate the effectiveness of low-dose doxycycline (LDD) versus placebo, in the prevention of subsequent plaque rupture events in patients enrolled after an initial acute coronary syndrome.
# Biochemical markers of inflammation were assessed at study entry and after six (6) months of therapy in a subset of patients. A total of thirty (30) patients completed the study of whom thirteen (13) were randomized to placebo and seventeen (17) to LDD. There were no significant differences in age, male gender, hypertension, diabetes, smoking, previous cardiac history, extent of coronary disease, presentation with acute myocardial infarction or unstable angina, or percutaneous coronary intervention between LDD and placebo treated patients.
# At six months clinical follow-up, there was no difference in the composite endpoint of cardiovascular death, myocardial infarction or troponin-positive unstable angina in LDD compared to placebo treated patients. […] In placebo-treated patients, CRP was 5.2 μg/ml at study entry and 4.9 μg/ml at six months (P=not significant (n.s.)).
# Patients with higher baseline CRP levels were reduced by 58% from 7.2 μg/ml to 3.0 μg/ml (P<0.001). In placebo-treated patients with higher baseline CRP, CRP levels were decreased by 23% (7.1 μg/ml to 5.5 μg/ml).
# [3] = single dose of two 100 mg tablets, adult human; cited from earlier work
# [4] = 250 mg every six hours over a twenty-four hour period; cited from earlier work
# [5] = all LDD patients (n = 17), listed as Low-Dose Doxycycline
# [6] = patients with higher CRP (>5 μg/ml)
# [7] = patients with lower baseline CRP (≦5 μg/ml)
compound,measurement,setting,value
"NC(=O)C1=C(O)CC2CC3Cc4cccc(O)c4C(=O)C3=C(O)C2(O)C1=O (stereo not drawn) [CMT-3, 4-dedimethylaminosancycline]",serum levels in humans,[1],about 1.0 μg/ml
"C[C@H]1c2cccc(O)c2C(=O)C2=C(O)[C@]3(O)C(=O)C(C(N)=O)=C(O)[C@@H](N(C)C)[C@@H]3[C@@H](O)[C@@H]21 [LDD, doxycycline]",6-Month CRP level,[2]; all LDD patients (n = 17),2.6 µg/mL
same,6-Month CRP level,[2]; [5],2.6 ± 0.4 µg/mL
same,Reduction Due To Treatment (CRP),[2]; all LDD patients (n = 17),46%
same,Reduction Due To Treatment (CRP),[2]; [5],45%
same,Baseline CRP level,[2]; all LDD patients (n = 17),4.8 µg/mL
same,Baseline CRP level,[2]; [5],4.8 ± 0.6 µg/mL
same,Reduction Due To Treatment (CRP),[2]; [6],58%
same,Six Month CRP,"[2]; patients with higher CRP (>5 μg/ml), P<0.001 vs baseline",3.0 μg/ml and 3.0 ± 0.7^a μg/ml
same,Baseline CRP,[2]; [6],7.2 µg/mL and 7.2 ± 0.6 µg/mL
same,Reduction Due To Treatment (CRP),[2]; [7],23%
same,Six Month CRP,"[2]; patients with lower baseline CRP (≦5 μg/ml), n.s. vs baseline",2.3 μg/ml and 2.3 ± 0.5^b μg/ml
same,Baseline CRP,[2]; [7],3.0 µg/mL and 3.0 ± 0.4 µg/mL
CN(C)c1ccc(O)c2c1C[C@H]1C[C@H]3[C@H](N(C)C)C(O)=C(C(N)=O)C(=O)[C@@]3(O)C(O)=C1C2=O [minocycline HCl],"minocycline serum level, average",[3],2.24 µg/mL
CN(C)[C@@H]1C(O)=C(C(N)=O)C(=O)[C@@]2(O)C(O)=C3C(=O)c4c(O)cccc4[C@@](C)(O)[C@H]3C[C@@H]12 [tetracycline HCl],peak plasma concentration,[4],approximately 3 μg/ml
